≈ marks a conversion by molar mass, not a printed value.
How the values were obtained:
Format in all cases: cell-based
fresh morning saliva = test: In-vitro test for reducing bad breath (liquid medium inoculated with fresh morning saliva, smelt by a test panel); details: for formation of bad breath / smell after incubation: 0.1%
Procedure: This test is based on the work of Goldberg and Rosenberg (Production of Oral Malodor in an in vitro System, S. Goldberg and M. Rosenberg, pp. 143-150, in: Bad Breath—A multidisciplinary Approach, Eds: D. van Steenberghe, M. Rosenberg, Leuven University Press, 1996) and was adapted for the purposes of better reproducibility.
A sterile liquid medium that is inoculated with fresh morning saliva is incubated for a few days at 37° C. and then smelt by a test panel.
An intensive typical smell of bad breath had formed. Non-inoculated controls only have a weak to moderate smell of bad breath.
Triclosan® in a concentration of 0.05% was added as control for the tests.
The minimum effective concentrations of various compounds of the Formula 1 or of the Formula 1A at which no smell could be detected are shown hereinafter: […]

Escherichia coli = test: Effect against germs not connected with bad breath; details: 1,000 ppm
Aspergillus niger = test: Effect against germs not connected with bad breath; details: 1,000 ppm
Candida albicans = test: Effect against germs not connected with bad breath; details: 1,000 ppm
Staphylococcus aureus = test: Minimal inhibiting concentration, series dilution test; details: bactericide
Procedure: (§1) The minimal inhibiting concentration (MIC) was determined by way of example for 2-(benzoylamino) benzoic acid (Compound 27) in a series dilution test against various germs found in the mouth.

Veillonella parvula = test: as above; details: bactericide
Procedure: as §1

Prevotella intermedia = test: as above
Procedure: as §1

Fusobacterium nucleatum = test: as above
Procedure: as §1

[1] = medium inoculated with fresh morning saliva, incubated a few days at 37° C., test panel

Compound | minimum effective concentration at which no smell could be detected (fresh morning saliva; [1]) | further results
COc1ccc(/C=C/C(=O)Nc2ccc(O)cc2C(=O)O)cc1OC [Compound 13, 5-Hydroxy-2-{[(2E)-3-(3,4-dimethoxyphenyl)prop-2-enoyl]amino}benzoic acid] | 0.01% | 
COc1cc(/C=C/C(=O)Nc2ccccc2C(=O)O)ccc1O [Compound 9, 2-{[(2E)-3-(4-hydroxy-3-methoxyphenyl)prop-2-enoyl]amino}benzoic acid] | 0.005% | 
O=C(/C=C/c1ccc(O)c(O)c1)Nc1ccc(O)cc1C(=O)O [Compound 3, 5-hydroxy-2-{[(2E)-3-(3,4-dihydroxyphenyl)prop-2-enoyl]amino}benzoic acid] | 0.0025% | 
COc1ccc(/C=C/C(=O)Nc2ccccc2C(=O)O)cc1 [Compound 101, 2-{[(2E)-3-(4-methoxyphenyl)prop-2-enoyl]amino}benzoic acid] | 0.0025% | 
COc1cc(/C=C/C(=O)Nc2ccc(O)cc2C(=O)O)ccc1O [Compound 4, 5-hydroxy-2-{[(2E)-3-(4-hydroxy-3-methoxyphenyl)prop-2-enoyl]amino}benzoic acid] | 0.01% | minimum effective concentration at which no smell could be detected (fresh morning saliva; same value given in ppm): (=100 ppm)
Cc1ccc(C(C)C)c(O)c1 [thymol, reference compound] |  | formation of bad breath / smell after incubation (fresh morning saliva): suppressed the formation of bad breath
C=CCc1ccc(O)c(OC)c1 [eugenol, reference compound] |  | formation of bad breath / smell after incubation (fresh morning saliva): suppressed the formation of bad breath
O=C(Nc1ccccc1C(=O)O)c1ccccc1O [Compound 29, 2-[(2-hydroxybenzoyl)amino]benzoic acid] | 0.0025% | 
O=C(/C=C/c1ccc(O)c(O)c1)Nc1ccccc1C(=O)O [Compound 2, 2-{[(2E)-3-(3,4-dihydroxyphenyl)prop-2-enoyl]amino}benzoic acid] | 0.005% | 
COc1ccc(C(=O)Nc2ccccc2C(=O)O)cc1O [Compound 23, 2-[(3-hydroxy-4-methoxybenzoyl)amino]benzoic acid] | 0.0025% | 
O=C(/C=C/c1ccccc1)Nc1ccccc1C(=O)O [Compound 102, 2-{[(2E)-3-phenylprop-2-enoyl]amino}benzoic acid] | 0.001% | minimum effective concentration at which no smell could be detected (fresh morning saliva; same value given in ppm): (=10 ppm)
O=C(Nc1ccccc1C(=O)O)c1cccc(O)c1 [Compound 28, 2-[(3-hydroxybenozyl)amino]benzoic acid] | 0.0005% | minimum effective concentration at which no smell could be detected (fresh morning saliva; same value given in ppm): (=5 ppm)
O=C(Nc1ccccc1)c1ccccc1O [Compound 100, Salicylanilide] | 0.0025% | 
O=C(/C=C/c1ccc(O)cc1)Nc1ccccc1C(=O)O [Compound 10, 2-{[(2E)-3-(4-hydroxyphenyl)prop-2-enoyl]amino}benzoic acid] | 0.0025% | effect against the germ (Escherichia coli): did not have any effect; effect against the germ (Aspergillus niger): did not have any effect; effect against the germ (Candida albicans): did not have any effect; minimum effective concentration at which no smell could be detected (fresh morning saliva; same value given in ppm): (=25 ppm)
O=C(Nc1ccccc1C(=O)O)c1ccc(O)cc1 [Compound 24, 2-[(4-hydroxybenzoyl)amino]benzoic acid] | 0.001% | 
COc1cc(C(=O)Nc2ccccc2C(=O)O)ccc1O [Compound 25, 2-[(4-hydroxy-3-methoxybenzoyl)amino]benzoic acid] | 0.001% | 
O=C(/C=C/c1ccccc1)Nc1ccc(O)cc1C(=O)O [Compound 12, 5-Hydroxy-2-{[(2E)-3-phenylprop-2-enoyl]amino}benzoic acid] | 0.0025% | 
O=C(Nc1ccccc1C(=O)O)c1ccc(O)c(O)c1 [Compound 20, 2-[(3,4-dihydroxybenzoyl)amino]benzoic acid] | 0.005% | 
O=C(Nc1ccccc1C(=O)O)c1ccccc1 [Compound 27, 2-(benzoylamino)-benzoic acid] | 0.0025% | smell after incubation (fresh morning saliva; 0.001 wt. %): a non unpleasant smell could be detected, which did not bear any resemblance to bad breath; smell after incubation (fresh morning saliva; 0.0025 wt. %): no smell; MIC (Staphylococcus aureus): 500 µg/mL (≈ 2070 µM); MIC (Veillonella parvula): 250 µg/mL (≈ 1040 µM); MIC (Prevotella intermedia; bactericide): 1000 µg/mL (≈ 4150 µM); MIC (Prevotella intermedia; bacteriostatic): 500 µg/mL (≈ 2070 µM); MIC (Fusobacterium nucleatum; bactericide): 1000 µg/mL (≈ 4150 µM); MIC (Fusobacterium nucleatum; bacteriostatic): 500 µg/mL (≈ 2070 µM)
O=C(CCc1ccc(O)cc1)Nc1ccccc1C(=O)O [Compound 8, 2-{[3-(4-hydroxyphenyl)propanoyl]amino}benzoic acid] | 0.005% | 
O=C(Nc1cc(O)ccc1C(=O)O)c1ccc(O)cc1 [Compound 75, 4-hydroxy-2-[(4-hydroxybenzoyl]amino}benzoic acid] | 0.01% | 
Oc1cc(Cl)ccc1Oc1ccc(Cl)cc1Cl [Triclosan, reference compound] |  | smell after incubation (fresh morning saliva; 0.05%, control): the same smell as the non-inoculated flasks
O=C(/C=C/c1ccc(O)cc1)Nc1ccc(O)cc1C(=O)O [Compound 7, 5-hydroxy-2-{[(2E)-3-(4-hydroxyphenyl)prop-2-enoyl]amino}benzoic acid] | 0.005% | minimum effective concentration at which no smell could be detected (fresh morning saliva; same value given in ppm): (=50 ppm)
O=C(Nc1ccccc1C(=O)O)c1ccc(O)cc1O [Compound 26, 2-[(2,4-dihydroxybenzoyl)amino]benzoic acid] | 0.0025% | 
